The term IC50 denotes the concentration needed to halve the response being measured.

Ends that are not written are not given here. Where only a bound is given, the exact number is not on record here.

This is an account of results in US7414134B2, “B1 bradykinin receptor antagonists” (Amgen Inc., priority 2004, dated 2008).

For one series, the target named is T1, hB1 receptor (Homo sapiens, UniProt P46663).
T1 construct: expressed in transfected cells; host or cells: CHO D- cells stably expressing hB1 and aequorin
T1 sequence (P46663 1-353): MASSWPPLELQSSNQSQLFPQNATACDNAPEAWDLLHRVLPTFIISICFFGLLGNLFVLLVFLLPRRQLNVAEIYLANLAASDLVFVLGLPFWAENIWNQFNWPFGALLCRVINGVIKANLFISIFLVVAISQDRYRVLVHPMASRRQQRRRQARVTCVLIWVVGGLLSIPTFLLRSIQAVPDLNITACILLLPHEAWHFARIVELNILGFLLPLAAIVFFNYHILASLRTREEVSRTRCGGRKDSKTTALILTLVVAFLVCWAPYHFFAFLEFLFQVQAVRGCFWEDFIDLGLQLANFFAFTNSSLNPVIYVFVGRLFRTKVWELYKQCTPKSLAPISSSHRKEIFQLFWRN
Briefly: In vitro assay of human B1 receptor function using calcium flux (aequorin). The format is cell-based. The note with it: CHO D-/hB1/Aequorin cells, agonist 20 nM des-Arg10-Kallidin (EC80); read-out: binding IC50's to hB1 receptor function. The text has this: Activation of the Gq linked B1 receptor results in an increase in intracellular calcium. The calcium sensitive photoprotein aequorin can, therefore, be used as an indicator of B1 receptor activation. Aequorin is a 21-kDa photoprotein that forms a bioluminescent complex when linked to the chromophore cofactor coelenterazine. Following the binding of calcium to this complex, an oxidation reaction of coelenterazine results in the production of apoaequorin, coelenteramide, CO2, and light that can be detected by conventional luminometry.
A stable CHO D-/hB1/Aequorin cell line was established and the cells were maintained in suspension in spinner bottles containing a 1:1 ratio of DMEM and HAM F12 (Gibco 11765-047), high glucose (Gibco 11965-084), 10% Heat Inactivated Dialyzed serum (Gibco 26300-061), 1× Non-Essential Amino Acids (Gibco 11140-050), 1× Glutamine-Pen-Strep (Gibco 10378-016), and Hygromycin, 300 μg/mL (Roche 843555). […]
Media was removed from the wells and replaced with 60 μL of serum free HAM's F12 with 30 mM HEPES (pH 7.5) and 15 μM coelenterazine (Coelenterazine h Luciferin #90608 from Assay Designs). […] The hB1 agonist, des-Arg10-Kallidin, was added to the cell plate and another 12 images were recorded to determine the IC50 of the antagonist(s).
For orientation: Calcium assays in cells follow changes in intracellular calcium, usually with a dye or a luminescent sensor.

For series [1] the following is noted: cited from earlier work.

Turning to `Cc1ccc(S(=O)(=O)N[C@H](Cc2cn([C@@H]3CCOc4cc(CN5CCC(F)CC5)ccc43)nn2)C(N)=O)cc1` [Example 7, (R)-3-(1-((R)-7-((4-fluoropiperidin-1-yl)methyl)-3,4-dihydro-2H-chromen-4-yl)-1H-1,2,3-triazol-4-yl)-2-(4-methylphenylsulfonamido)propanamide], the IC50 on hB1 receptor is < 1000 nM.

Turning to RPPGFSPFR [BK, Bradykinin], in series [1], the “half-life of BK in plasma” value is listed as “approximately 17 seconds”.
